The source of these data is US20120329784A1, “COMPOUNDS AND METHODS” (priority 2010, published 2012).

For this assay, the target named is T1, Full length human TNNI3K (hTNNI3K) (Homo sapiens, UniProt Q59H18).
T1 construct: His-MBP-TEV-Full length human TNNI3K (hTNNI3K); His (N); MBP (N); TEV cleavage site (N); made in house; host or cells: baculovirus expression system (printed 'Baculokinase system')
T1 sequence (Q59H18 1-835): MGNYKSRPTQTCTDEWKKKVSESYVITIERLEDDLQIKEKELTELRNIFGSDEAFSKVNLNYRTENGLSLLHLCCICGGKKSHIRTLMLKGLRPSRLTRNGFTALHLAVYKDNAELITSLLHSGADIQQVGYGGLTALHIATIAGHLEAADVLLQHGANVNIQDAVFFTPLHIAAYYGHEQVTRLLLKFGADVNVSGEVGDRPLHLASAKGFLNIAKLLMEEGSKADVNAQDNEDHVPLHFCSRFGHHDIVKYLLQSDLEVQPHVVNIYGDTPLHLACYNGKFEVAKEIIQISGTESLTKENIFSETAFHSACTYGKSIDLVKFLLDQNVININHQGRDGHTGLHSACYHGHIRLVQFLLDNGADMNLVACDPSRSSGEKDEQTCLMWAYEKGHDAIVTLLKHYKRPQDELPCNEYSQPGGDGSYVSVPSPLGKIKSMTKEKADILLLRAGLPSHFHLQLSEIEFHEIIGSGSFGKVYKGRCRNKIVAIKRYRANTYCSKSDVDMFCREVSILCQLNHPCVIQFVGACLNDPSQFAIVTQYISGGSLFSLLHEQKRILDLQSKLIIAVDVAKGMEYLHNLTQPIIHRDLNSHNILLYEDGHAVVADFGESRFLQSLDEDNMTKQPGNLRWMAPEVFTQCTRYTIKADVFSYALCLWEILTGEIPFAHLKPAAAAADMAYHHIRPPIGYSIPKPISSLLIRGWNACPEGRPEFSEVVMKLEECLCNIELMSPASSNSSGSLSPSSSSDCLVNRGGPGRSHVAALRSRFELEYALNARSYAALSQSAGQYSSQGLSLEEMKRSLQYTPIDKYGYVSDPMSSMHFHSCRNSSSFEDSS
Description: Fluorescent polarization assay of compound inhibition on hTNNI3K ATP binding (Biological Assay Method I). The source says:
Materials: His-MBP-TEV-Full length human TNNI3K (hTNNI3K) was expressed in Baculokinase system and purified from amylase affinity column followed by Superdex200. […] The preparation of this fluorescent ligand is disclosed in U.S. Provisional Patent Application No. 61/237,815 filed Aug. 28, 2009, the disclosure of which is incorporated by reference herein. The other buffer components, including MgCl2 (Catalog Number M1028), Bis-Tris (Catalog Number B7535), DTT (Catalog Number D9779) and Chaps (Catalog Number C3023) were purchased from Sigma-Aldrich.
A fluorescent polarization assay was used to determine does response of compound inhibition on hTNNI3K ATP binding. […]
Fifty (50) nL of inhibitors in DMSO (or DMSO controls) were stamped into a 384-well low volume Greiner black plate, followed by addition of 5 μL of Solution 1 to column 18 and 5 μL Solution 2 to columns 1-17 and 19-24 of the plate. […] After that, the fluorescent polarization was measured on Analyst (ex/em: 485/530 nm, Dichroic: 505). […]

Where a name gives a salt, the structure may show the parent alone. Read-outs that look alike come from different tables or passages of the source.

For `CNS(=O)(=O)c1cccc(Nc2cc(Nc3ccccc3)ncn2)c1` [Example 55, N-methyl-3-{[6-(phenylamino)-4-pyrimidinyl]amino}benzenesulfonamide trifluoroacetate], the IC50 is about 100 nM. Turning to `CNS(=O)(=O)c1cccc(Nc2cc(Nc3nc(C)co3)ncn2)c1` [Example 284, N-methyl-3-({6-[(4-methyl-1,3-oxazol-2-yl)amino]-4-pyrimidinyl}amino)benzenesulfonamide], the IC50 (mean of a minimum of 2 experiments, displacement of fluorescent ligand from hTNNI3K ATP binding pocket, 60 min at rt, read-out: pXC50 (the source's name) (converted)) was about 100 nM.
